Measurements: US11759471B2, “Modified release pharmaceutical composition and method for the treatment of mental disorders” (MEDICAL AND PHARMACEUTICAL INDUSTRY TECHNOLOGY AND …, priority 2019, dated 2023)

Columns and labels:
[1] = In vitro dissolution test, USP Apparatus 2 (paddle); format: physicochemical; conditions: FIG. 1, 3 mg paliperidone in raw form
Protocol: In vitro dissolution test was conducted in a USP Apparatus 2 (paddle) at 37±0.5° C., 50 rpm, in a solution having 750 mL of 0.1 N HCl and 1000 mL of pH 6.8 buffer
FIG. 1 discloses the dissolution release amount for 25 mg quetiapine in tablet of reference listed drug, 3 mg paliperidone in raw form.

[2] = as measured by blood concentration; cited from earlier work
[3] = Dissolution of methacrylic acid coated samples in pH1.2 solvent; format: physicochemical; conditions: methacrylic acid coated samples with different encapsulation efficiency
Protocol: Further use carried out with different encapsulation efficiency of experiments, and the samples with different encapsulation efficiency were test pH1.2 solvent dissolve. At the same time, it can be known that the results of the dissolution rate of paliperidone within 2 hours is not more than 10%. The present invention can be achieved effect of delayed release of paliperidone.

dissolution amount of paliperidone after pH change ([1]; after 120 minutes, pH increased from 1.2 to 6.8, slightly decreased): above 100%
dissolution amount of paliperidone ([1]; less than 10 minutes, then maintained, pH 1.2): above 100%
dissolution rate of paliperidone within 2 hours [3]: not more than 10%
SMILES: Cc1nc2n(c(=O)c1CCN1CCC(c3noc4cc(F)ccc34)CC1)CCCC2O (stereo not shown) [paliperidone]
half-life in patients' blood [2]: 20 to 28 h
